Measured values published in patent US12637427B2, “ALDH-2 inhibitor compounds and methods of use” (Amygdala Neurosciences, Inc., priority 2022, dated 2026).
pIC50: −log10 of the molar value.

Tests used:
MAO-A = target: T1, MAO-A (Homo sapiens, UniProt P21397); experiment: MAO-A inhibition assay; type: biochemical; details: 20 min pre-incubation; 10 μM = highest concentration tested; read-out: Enzymatic Assays IC50 MAO-A
T1 sequence (P21397 1-527): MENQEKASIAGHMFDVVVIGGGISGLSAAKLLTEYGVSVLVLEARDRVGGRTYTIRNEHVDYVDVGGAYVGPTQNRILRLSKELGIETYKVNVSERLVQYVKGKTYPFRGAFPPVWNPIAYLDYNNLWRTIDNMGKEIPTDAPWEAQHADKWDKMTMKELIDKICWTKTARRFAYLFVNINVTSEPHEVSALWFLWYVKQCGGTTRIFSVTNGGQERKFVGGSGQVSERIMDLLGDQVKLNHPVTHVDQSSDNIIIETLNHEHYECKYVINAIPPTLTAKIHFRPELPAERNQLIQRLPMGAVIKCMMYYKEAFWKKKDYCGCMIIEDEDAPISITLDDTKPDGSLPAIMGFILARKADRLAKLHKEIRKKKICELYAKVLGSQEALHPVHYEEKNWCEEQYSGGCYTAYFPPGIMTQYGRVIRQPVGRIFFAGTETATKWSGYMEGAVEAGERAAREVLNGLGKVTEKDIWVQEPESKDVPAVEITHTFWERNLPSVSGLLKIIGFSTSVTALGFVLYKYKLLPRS
Description: D. MAO-A and MAO-B inhibition assays: MAO assays included luminogenic MAO substrate, reaction buffers, Luciferin Detection, and a reconstitution buffer with esterase. The MAO reaction mixture used in the assay included microsome contained MAO-A (2 μg) or MAO-B (10 μg), 160 μM substrate for MAO-A or 16 μM substrate for MAO-B, MAO-A buffer (100 mM Hepes buffer, pH 7.5, 5% glycerol) or MAO-B buffer (100 mM Hepes, pH 7.5, 5% glycerol, 10% dimethyl sulfoxide) in a final volume of 30 μL. After 20 minutes of pre-incubation of the MAO-A or MAO-B enzyme with the test ALDH-2 inhibitor compound, the reaction was initiated by adding enzyme substrate and the […] reaction was allowed to proceed for 60 minutes. Reconstituted Luciferin Detection Reagent (30 μL) was then added is added to simultaneously stop the MAO reaction and convert the methyl ester derivative to luciferin and produce light. The amount of light produced is directly proportional to the activity of MAO. The mixtures were further incubated for 20 minutes and activity of the enzyme was determined using Perkin-Elmer Envision Reader.

HepaRG spheroids = experiment: HepaRG 3D spheroid assay; type: cell-based; details: for Ratio MEC to ALDH2: HepaRG spheroid MEC divided by ALDH-2 IC50; for HepaRG 3D Spheroid MEC: minimum effective concentration crossing vehicle control threshold of cell health marker, 100 μM = highest concentration tested
Source text: See e.g., Walker et al., “The evolution of strategies to minimise the risk of human drug-induced liver injury (DILI) in drug discovery and development,” (2020) Archives of Toxicology, Vol. 94: 2559-2585, which is hereby incorporated by reference herein in its entirety. […] In applying the HepaRG spheroid assay analysis to determining the hepatoxic liability of ALDH-2 inhibitor compounds, consideration is made of the binding to plasma protein and the limitations to CNS penetration due to the blood-brain barrier.
E. HepaRG® 3D spheroid assay: The HepaRG 3D spheroid assay is described in Walker et al., “The evolution of strategies to minimise the risk of human drug-induced liver injury (DILI) in drug discovery and development,” (2020) Archives of Toxicology, Vol. 94: 2559-2585. Briefly, HepaRG® cells were seeded into ultra-low adhesion 96-well black walled clear bottomed spheroid microplates. […] At the end of the incubation period, the spheroids were loaded with the relevant dye/antibody for each cell health marker (spheroid count, spheroid size, DNA structure, mitochondrial mass, mitochondrial membrane potential, oxidative stress, glutathione content, and cellular ATP). The plates were then scanned using an automated fluorescent cellular imager, ArrayScan® (Thermo Scientific Cellomics).

| Compound | pIC50 (MAO-A) | Ratio MEC to ALDH2 (HepaRG spheroids) | HepaRG 3D Spheroid MEC (HepaRG spheroids) |
| --- | --- | --- | --- |
| O=C(NCc1ccc(-c2cccc(=O)[nH]2)cc1)c1ccccc1Cl [(1b), 2-Chloro-N-(4-(6-oxo-1,6-dihydropyridin-2-yl)benzyl)benzamide] | < 5.00 | >730 | No Effect |
| Cc1nccc(Br)c1C(=O)NCc1ccc(-c2[nH]c(=O)ccc2F)cc1 [(1g), 4-Bromo-N-(4-(3-fluoro-6-oxo-1,6-dihydropyridin-2-yl)benzyl)-2-methylnicotinamide] | < 5.00 | 1668 | 46.7 µM |
| Cc1cccc(Cl)c1C(=O)NCc1ccc(-c2cccc(=O)[nH]2)cc1 [(1a), 2-Chloro-6-methyl-N-(4-(6-oxo-1,6-dihydropyridin-2-yl)benzyl)benzamide] | < 5.00 | 133 | 10.4 µM |
| Cc1cccc(Cl)c1C(=O)NCc1ccc(-c2cccc(=O)[nH]2)nc1 [(1k), 2-Chloro-6-methyl-N-((6′-oxo-1′,6′-dihydro-[2,2′-bipyridin]-5-yl)methyl)benzamide] | < 5.00 | 2100 | 21.0 µM |
| O=C(NCc1ccc(-c2cccc(=O)[nH]2)nc1)c1ccccc1Cl [(1l), 2-chloro-N-((6′-oxo-1′,6′-dihydro-[2,2′-bipyridin]-5-yl)methyl)benzamide] | < 5.00 | 50 | 5.95 µM |
| Cc1nccc(Cl)c1C(=O)NCc1ccc(-c2cccc(=O)[nH]2)cc1 [(1c), 4-Chloro-2-methyl-N-(4-(6-oxo-1,6-dihydropyridin-2-yl)benzyl)nicotinamide] | < 5.00 | 90 | 11.5 µM |
